Test results as given in patent US20220040129A1, “TREATMENT OF HYPERAMMONEMIA IN PATIENTS WITH RENAL INSUFFICIENCY” (RECORDATI S.p.A., priority 2019, published 2022).
Like-named read-outs stand apart in the source and are kept apart here.

Test: CARIV-A-001 Part B: cross-over IV infusion over 2 hours vs oral tablet 100 mg/kg in healthy subjects
Type: in vivo, human
Design: CL, Max / CL, Min: unit not given here
Conditions: for AUCinf, Max / AUCinf, Min / aucL, Max / aucL, Min: in ng·h/mL; for AUC(0-inf) / clearance / Cmax / half-life / CL/F / bioavailability / AUC(0-t) / AUC: plasma; for AUC: read-out: aucL, Median
Protocol: The levels of CGA in plasma and urine were analysed using a fully validated method, which included LC-MS/MS analysis. The PK data were analysed based on a non-compartmental model. A model-based approach was implemented for the characterization of the PK properties of the IV formulation in order to estimate the level of PK exposure after different doses administered with different duration of infusion. The model outcomes provided rationales for supporting decision-making through the dose escalation process. The PK parameters were determined using SAS (version 9.3), and modelling of the PK data was performed using NONMEM (version 7.3, ICON Solutions). PART A: Mono-Centre, Randomized, Successive Groups, Double-Blind, Placebo-Controlled Study in Healthy Male and Female Subjects
Part B was a randomized, double-blind, cross-over, two-sequence study. It was conducted in 12 healthy male and female subjects.
In two treatment periods, separated by a washout of at least two weeks, subjects received a single administration of the study medication in fasting conditions, either as an IV loading dose infusion of Rec0/0491 over 2 hours (started with 6 mg/kg/h then reduced to 4.0 mg/kg/h), or an oral tablet administration of Carbaglu® (100 mg/kg).
Blood samples for PK measurements were collected at 19 timepoints for the IV administration and 17 timepoints for the oral administration. This included a sample prior to intake of the study medication and the period ranging from 20 minutes to 72 hours following the initiation of the IV infusion, and the period ranging from 30 minutes to 72 hours following oral intake. Urine was also collected for PK measurements, at the following intervals relative to the time of administration of the study medication: 0-6, 6-12, 12-24, 24-36 and 36-48 hours.
The PK analysis of Carbaglu was conducted on all subjects showing quantifiable plasma levels using standard non-compartmental approach.

[1] = both sexes, human, oral, OR, 100 mg/kg, N 12
[2] = both sexes, human, IV, 8 mg/kg, N 10
[3] = both sexes, human, IV, 12 mg/kg, N 2
[4] = dose normalized section, Reference (IV data), in h
[5] = dose normalized section, Test (oral data), in h
[6] = dose normalized, Reference (IV data)
[7] = dose normalized, Test (oral data)

Structure (SMILES): NC(=O)N[C@@H](CCC(=O)O)C(=O)O [carglumic acid, N-carbamoyl-L-glutamic acid]
- Absolute bioavailability F of the oral vs IV formulation, GeoMean (12 subjects): 9.57%
- Equivalence of exposure, oral tablet 100 mg/kg vs IV infusion over 2 hours (90% confidence limits vs reference limits of 0.8 and 1.25): non-equivalent level of exposure
- CL, Max (IV, 8 mg/kg, N 10): 0.472
- CL, Min (IV, 8 mg/kg, N 10): 0.225
- Cmax, Max (IV, 8 mg/kg, N 10): 11700 ng/mL
- Cmax, Min (IV, 8 mg/kg, N 10): 5400 ng/mL
- HL (Half-life), Max (IV, 8 mg/kg, N 10, in h): 52.95
- HL (Half-life), Min (IV, 8 mg/kg, N 10, in h): 22.85
- AUCinf, Max (IV, 8 mg/kg, N 10): 35564.90
- AUCinf, Min (IV, 8 mg/kg, N 10): 16949.96
- aucL, Max (IV, 8 mg/kg, N 10): 34579.31
- aucL, Min (IV, 8 mg/kg, N 10): 15713.03
- CL, Max (IV, 12 mg/kg, N 2): 0.267
- CL, Min (IV, 12 mg/kg, N 2): 0.192
- Cmax, Max (IV, 12 mg/kg, N 2): 23500 ng/mL
- Cmax, Min (IV, 12 mg/kg, N 2): 19400 ng/mL
- HL (Half-life), Max (IV, 12 mg/kg, N 2, in h): 42.59
- HL (Half-life), Min (IV, 12 mg/kg, N 2, in h): 27.23
- AUCinf, Max (IV, 12 mg/kg, N 2): 62628.03
- AUCinf, Min (IV, 12 mg/kg, N 2): 45001.41
- aucL, Max (IV, 12 mg/kg, N 2): 61017.40
- aucL, Min (IV, 12 mg/kg, N 2): 43281.03
- Cmax, Max (OR, 100 mg/kg, N 12): 5620 ng/mL
- Cmax, Min (OR, 100 mg/kg, N 12): 1950 ng/mL
- HL (Half-life), Max (OR, 100 mg/kg, N 12, in h): 35.31
- HL (Half-life), Min (OR, 100 mg/kg, N 12, in h): 17.56
- AUCinf, Max (OR, 100 mg/kg, N 12): 45696.37
- AUCinf, Min (OR, 100 mg/kg, N 12): 21852.27
- aucL, Max (OR, 100 mg/kg, N 12): 44250.17
- aucL, Min (OR, 100 mg/kg, N 12): 20030.59
- Percent of dose excreted in urine (after IV administration): 82%
- Percent of dose excreted in urine (after oral administration): 7.5%
- CL renal (both sexes, human, plasma and urine, after IV administration, read-out: Renal clearance (converted)): ~5 mL/min/kg
- AUC(0-inf) (both sexes, human, iv, 8 mg/kg, IV, 8 mg/kg, N 10, read-out: AUCinf, Mean): 24500 ng·h/mL
- AUC(0-inf) (both sexes, human, iv, 8 mg/kg, IV, 8 mg/kg, N 10, read-out: AUCinf, Median): 23700 ng·h/mL
- clearance (both sexes, human, iv, 8 mg/kg, IV, 8 mg/kg, N 10, read-out: CL, Mean (converted)): 5.65 mL/min/kg
- clearance (both sexes, human, iv, 8 mg/kg, IV, 8 mg/kg, N 10, read-out: CL, Median (converted)): 5.63 mL/min/kg
- Cmax (both sexes, human, iv, 8 mg/kg, IV, 8 mg/kg, N 10, read-out: Cmax, Mean): 8610 ng/mL
- Cmax (both sexes, human, iv, 8 mg/kg, IV, 8 mg/kg, N 10, read-out: Cmax, Median): 8760 ng/mL
- half-life (both sexes, human, iv, 8 mg/kg, IV, 8 mg/kg, N 10, read-out: HL (Half-life), Mean (converted)): 30.6 h
- half-life (both sexes, human, iv, 8 mg/kg, IV, 8 mg/kg, N 10, read-out: HL (Half-life), Median (converted)): 28.8 h
- AUC(0-inf) (both sexes, human, iv, 12 mg/kg, IV, 12 mg/kg, N 2, read-out: AUCinf, Mean): 53800 ng·h/mL
- AUC(0-inf) (both sexes, human, iv, 12 mg/kg, IV, 12 mg/kg, N 2, read-out: AUCinf, Median): 53800 ng·h/mL
- clearance (both sexes, human, iv, 12 mg/kg, IV, 12 mg/kg, N 2, read-out: CL, Mean (converted)): 3.82 mL/min/kg
- clearance (both sexes, human, iv, 12 mg/kg, IV, 12 mg/kg, N 2, read-out: CL, Median (converted)): 3.82 mL/min/kg
- Cmax (both sexes, human, iv, 12 mg/kg, IV, 12 mg/kg, N 2, read-out: Cmax, Mean): 21400 ng/mL
- Cmax (both sexes, human, iv, 12 mg/kg, IV, 12 mg/kg, N 2, read-out: Cmax, Median): 21400 ng/mL
- half-life (both sexes, human, iv, 12 mg/kg, IV, 12 mg/kg, N 2, read-out: HL (Half-life), Mean (converted)): 34.9 h
- half-life (both sexes, human, iv, 12 mg/kg, IV, 12 mg/kg, N 2, read-out: HL (Half-life), Median (converted)): 34.9 h
- clearance (both sexes, human, iv, after IV administration, read-out: Total clearance (converted)): 5.17 mL/min/kg
- AUC(0-inf) (both sexes, human, oral, 100 mg/kg, OR, 100 mg/kg, N 12, read-out: AUCinf, Mean): 31400 ng·h/mL
- AUC(0-inf) (both sexes, human, oral, 100 mg/kg, OR, 100 mg/kg, N 12, read-out: AUCinf, Median): 30200 ng·h/mL
- CL/F (both sexes, human, oral, 100 mg/kg, OR, 100 mg/kg, N 12, read-out: CL/F, Mean (converted)): 55.6 mL/min/kg
- CL/F (both sexes, human, oral, 100 mg/kg, OR, 100 mg/kg, N 12, read-out: CL/F, Median (converted)): 55.2 mL/min/kg
- Cmax (both sexes, human, oral, 100 mg/kg, OR, 100 mg/kg, N 12, read-out: Cmax, Mean): 3280 ng/mL
- Cmax (both sexes, human, oral, 100 mg/kg, OR, 100 mg/kg, N 12, read-out: Cmax, Median): 2940 ng/mL
- half-life (both sexes, human, oral, 100 mg/kg, OR, 100 mg/kg, N 12, read-out: HL (Half-life), Mean (converted)): 24.6 h
- half-life (both sexes, human, oral, 100 mg/kg, OR, 100 mg/kg, N 12, read-out: HL (Half-life), Median (converted)): 23.7 h
- bioavailability (both sexes, human, oral, 100 mg/kg, 12 subjects, read-out: Absolute bioavailability, 90% confidence intervals): 8.3 to 11%
- AUC(0-t) [1]: 29800 ng·h/mL
- AUC [1]: 29100 ng·h/mL
- bioavailability (both sexes, human, po, 100 mg/kg, read-out: Oral bioavailability): ~10%
- AUC(0-t) [2]: 22900 ng·h/mL
- AUC [2]: 22000 ng·h/mL
- AUC(0-t) [3]: 52100 ng·h/mL
- AUC [3]: 52100 ng·h/mL
- refHalf_life, Max [4]: 52.95
- refHalf_life, Mean [4]: 31.351
- refHalf_life, Median [4]: 28.81
- refHalf_life, Min [4]: 22.85
- testHalf life, Mean (dose normalized section, Test (oral data)): 24.6 h
- testHalf_life, Max [5]: 35.31
- testHalf_life, Median [5]: 23.71
- testHalf_life, Min [5]: 17.56
- refAUCinf, Max [6]: 5219
- refAUCinf, Mean [6]: 3299.58
- refAUCinf, Median [6]: 3162.4
- refAUCinf, Min [6]: 2118.74
- refAUClast, Max [6]: 5084.78
- refAUClast, Mean [6]: 3105.22
- refAUClast, Median [6]: 2840.05
- refAUClast, Min [6]: 1964.13
- refCL, Max [6]: 0.059
- refCL, Mean [6]: 0.038
- refCL, Median [6]: 0.04
- refCL, Min [6]: 0.016
- refCmax, Max [6]: 1958.33
- refCmax, Mean [6]: 1195.1
- refCmax, Median [6]: 1148.13
- refCmax, Min [6]: 675
- testAUCinf, Max [7]: 456.96
- testAUCinf, Mean [7]: 314.25
- testAUCinf, Min [7]: 218.52
- testAUClast, Max [7]: 442.5
- testAUClast, Mean [7]: 298.07
- testAUClast, Min [7]: 200.31
- testCL, Max [7]: 0.046
- testCL, Mean [7]: 0.033
- testCL, Min [7]: 0.022
- testCmax, Max [7]: 56.2
- testCmax, Mean [7]: 32.84
- testCmax, Min [7]: 19.5
- Absolute bioavailability F of the oral vs IV formulation, Mean (from dose normalized AUCinf, 12 subjects): 9.87%
- Total clearance after oral administration corrected by the bioavailability value of F=9.87% (oral): 5.83 mL/min/kg
